Reference: US8642774B2, “Compounds” (Boehringer Ingelheim International GmbH, priority 2011, dated 2014)

These molecules were tested against T1, human recombinant mGluR5 (Homo sapiens, UniProt P41594) (assay: positive modulation of mGluR5, calcium based FLIPR assay). Conditions: EC50 of the modulation; HEK 293 cell line expressing human recombinant mGluR5; peak height of Ca fluorescence signal after glutamate at approx. 5% basal stimulation; read-out: EC50.
T1 construct: expressed in transfected cells; host or cells: HEK 293 cell line, cultured with tetracycline, hygromycin and geneticin; tetracycline is withdrawn 3-7 days before the assay
Format: cell-based
Outline: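 HEK 293 cells expressing human recombinant mGluR5, tetracycline-free before assay, loaded with Calcium-4 dye in Ringer solution pH 7.4. Compounds (1% DMSO final) added for 5 min, then glutamate at about 5% of maximal effect; FLIPR peak Ca signal scaled between 1% DMSO (100%) and 10 μM CDPPB (200%) controls, EC50 by nonlinear regression.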

T1 sequence (P41594 21-1212): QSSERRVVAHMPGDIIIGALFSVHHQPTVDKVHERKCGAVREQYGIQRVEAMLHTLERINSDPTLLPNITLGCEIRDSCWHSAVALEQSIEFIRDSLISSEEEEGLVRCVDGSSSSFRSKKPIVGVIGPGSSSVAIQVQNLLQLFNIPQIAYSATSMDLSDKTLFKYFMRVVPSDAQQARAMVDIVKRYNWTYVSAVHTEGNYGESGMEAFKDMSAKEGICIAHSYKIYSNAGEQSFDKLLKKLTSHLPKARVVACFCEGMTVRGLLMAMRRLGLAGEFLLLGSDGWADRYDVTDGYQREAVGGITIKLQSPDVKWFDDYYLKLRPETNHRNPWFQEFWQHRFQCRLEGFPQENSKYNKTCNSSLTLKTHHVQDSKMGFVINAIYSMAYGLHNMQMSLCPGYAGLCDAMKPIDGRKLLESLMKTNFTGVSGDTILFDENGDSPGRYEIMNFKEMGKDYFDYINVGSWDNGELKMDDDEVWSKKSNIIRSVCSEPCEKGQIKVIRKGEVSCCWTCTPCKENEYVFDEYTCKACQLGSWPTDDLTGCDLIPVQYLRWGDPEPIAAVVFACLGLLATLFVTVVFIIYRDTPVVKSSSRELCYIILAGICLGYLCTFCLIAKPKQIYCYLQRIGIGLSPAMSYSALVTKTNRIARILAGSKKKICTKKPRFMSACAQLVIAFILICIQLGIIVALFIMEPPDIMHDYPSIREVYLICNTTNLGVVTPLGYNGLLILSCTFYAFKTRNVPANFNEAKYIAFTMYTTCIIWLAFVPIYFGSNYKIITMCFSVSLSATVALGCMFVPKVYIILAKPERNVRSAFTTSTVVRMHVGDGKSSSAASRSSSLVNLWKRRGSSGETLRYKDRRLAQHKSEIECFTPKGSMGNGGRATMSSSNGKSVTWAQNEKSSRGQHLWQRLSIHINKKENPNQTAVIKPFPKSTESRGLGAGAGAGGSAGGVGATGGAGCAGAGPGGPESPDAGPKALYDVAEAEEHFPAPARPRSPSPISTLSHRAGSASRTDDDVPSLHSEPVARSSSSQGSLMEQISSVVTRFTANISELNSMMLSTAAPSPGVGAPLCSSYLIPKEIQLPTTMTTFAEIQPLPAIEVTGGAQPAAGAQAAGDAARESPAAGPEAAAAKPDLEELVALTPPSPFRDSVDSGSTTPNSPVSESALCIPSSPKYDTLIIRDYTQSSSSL

Structure (SMILES) | EC50 [nM]
COc1cnc(C2=CCN(C(=O)Cn3nc(-c4ccc(F)c(C)c4)nc3C(C)C)CC2)nc1 [Example 7.03.080.] | 1140
CCc1nc(-c2ccc(F)c(C)c2)nn1CC(=O)N1CCc2nc(C)sc2CC1 [Example 7.03.081.] | 413
CCc1nc(-c2ccc(F)c(C)c2)nn1CC(=O)N1CCc2nc(N)sc2CC1 [Example 7.03.082.] | 1890
Cc1cc(-c2nc(-c3ccc(F)c(C)c3)n(CC(=O)N3CCc4nc(N)sc4CC3)n2)ccc1F [Example 7.03.083.] | 64
Cc1nc2c(s1)CCN(C(=O)Cn1nc(-c3ccc(F)c(C)c3)nc1-c1ccc(F)c(C)c1)CC2 [Example 7.03.084.] | 52
CCC(C)c1nc(-c2ccc(F)c(C)c2)nn1CC(=O)N1CCc2nc(N)sc2CC1 (centres unmarked) [Example 7.03.085.] | 644
CCC(C)c1nc(-c2ccc(F)c(C)c2)nn1CC(=O)N1CCc2nc(C)sc2CC1 (centres unmarked) [Example 7.03.086.] | 379
Cc1nc2c(s1)CCN(C(=O)Cn1nc(-c3ccc(F)c(C)c3)nc1C)CC2 [Example 7.03.087.] | 647
COc1cc(-c2nc(-c3ccc(F)cc3)n(CC(=O)N3CCc4nc(N)sc4CC3)n2)ccc1F [Example 7.03.088.] | 60
COc1cc(-c2nc(-c3ccc(F)cc3)n(CC(=O)N3CCc4nc(C)sc4CC3)n2)ccc1F [Example 7.03.089.] | 71
Cc1nc2c(s1)CCN(C(=O)Cn1nc(-c3ccc(F)c(C)c3)nc1C1CCC(C)CC1)CC2 (centres unmarked) [Example 7.03.090.] | 420
Cc1nc2c(s1)CN(C(=O)Cn1nc(-c3ccc(F)c(C)c3)nc1C1CCC(C)CC1)C2 (centres unmarked) [Example 7.03.091.] | 1680
Cc1cc(-c2nc(C3CCC(C)CC3)n(CC(=O)N3CCc4nc(N)sc4CC3)n2)ccc1F (centres unmarked) [Example 7.03.092.] | 1160
Cc1nc2c(s1)CCN(C(=O)Cn1nc(-c3ccc(F)c(C)c3)nc1C1CCCCC1C)CC2 (centres unmarked) [Example 7.03.093.] | 433
Cc1cc(-c2nc(C3CCCCC3C)n(CC(=O)N3CCc4nc(N)sc4CC3)n2)ccc1F (centres unmarked) [Example 7.03.094.] | 1090
Cc1cc(-c2nc(C3CCCC(C)C3)n(CC(=O)N3CCc4nc(N)sc4CC3)n2)ccc1F (centres unmarked) [Example 7.03.095.] | 610
Cc1nc2c(s1)CCN(C(=O)Cn1nc(-c3ccc(F)c(C)c3)nc1C1CCCC(C)C1)CC2 (centres unmarked) [Example 7.03.096.] | 355
Cc1nc2c(s1)CCN(C(=O)Cn1nc(-c3ccc(F)c(C)c3)nc1C1CCC(F)(F)CC1)CC2 [Example 7.03.097.] | 502
Cc1nc2c(s1)CCN(C(=O)Cn1nc(-c3ccc(F)c(C)c3)nc1CC(C)C)CC2 [Example 7.03.098.] | 226
Cc1cc(-c2nc(CC(C)C)n(CC(=O)N3CCc4nc(N)sc4CC3)n2)ccc1F [Example 7.03.099.] | 269
CCCCc1nc(-c2ccc(F)c(C)c2)nn1CC(=O)N1CCN(c2cccc(OC)c2)C(=O)C1 [Example 7.03.100.] | 302
CCCCc1nc(-c2ccc(F)c(C)c2)nn1CC(=O)N1Cc2nc(C)sc2C1 [Example 7.03.101.] | 382
CCCCc1nc(-c2ccc(F)c(C)c2)nn1CC(=O)N1CCc2nc(N)sc2CC1 [Example 7.03.102.] | 293
CCCCc1nc(-c2ccc(F)c(C)c2)nn1CC(=O)N1CCc2nc(C)sc2CC1 [Example 7.03.103.] | 113
COc1cccc(N2CCN(C(=O)Cn3nc(-c4ccc(F)c(C)c4)nc3C3CCCC3)CC2=O)c1 [Example 7.03.104.] | 679
Cc1nc2c(s1)CN(C(=O)Cn1nc(-c3ccc(F)c(C)c3)nc1C1CCCC1)C2 [Example 7.03.105.] | 870
Cc1cc(-c2nc(C3CCCC3)n(CC(=O)N3CCc4nc(N)sc4CC3)n2)ccc1F [Example 7.03.106.] | 251

Structure (SMILES) | EC50 [nM]
Cc1nc2c(s1)CCN(C(=O)Cn1nc(-c3ccc(F)c(C)c3)nc1C1CCCC1)CC2 [Example 7.03.107.] | 63
CCCCCc1nc(-c2ccc(F)c(C)c2)nn1CC(=O)N1Cc2nc(C)sc2C1 [Example 7.03.108.] | 201
CCCCCc1nc(-c2ccc(F)c(C)c2)nn1CC(=O)N1CCN(c2cccc(OC)c2)C(=O)C1 [Example 7.03.109.] | 422
CCCCCc1nc(-c2ccc(F)c(C)c2)nn1CC(=O)N1CCc2nc(C)sc2CC1 [Example 7.03.110.] | 55
CCCCCc1nc(-c2ccc(F)c(C)c2)nn1CC(=O)N1CCc2nc(N)sc2CC1 [Example 7.03.111.] | 90
Cc1cc(-c2nc(CCC(C)C)n(CC(=O)N3CCc4nc(N)sc4CC3)n2)ccc1F [Example 7.03.112.] | 147
Cc1nc2c(s1)CN(C(=O)Cn1nc(-c3ccc(F)c(C)c3)nc1CCC(C)C)C2 [Example 7.03.113.] | 340
Cc1nc2c(s1)CCN(C(=O)Cn1nc(-c3ccc(F)c(C)c3)nc1CCC(C)C)CC2 [Example 7.03.114.] | 102
Nc1nc2c(s1)CCN(C(=O)Cn1nc(-c3ccc(F)cn3)nc1-c1ccc(F)cc1)CC2 [Example 7.03.115.] | 231
Cc1nc2c(s1)CCN(C(=O)Cn1nc(-c3ccc(F)cn3)nc1-c1ccc(F)cc1)CC2 [Example 7.03.116.] | 392
Cc1nc2c(s1)CCN(C(=O)Cn1nc(-c3ccc(F)cc3)nc1-c1ccc(F)cn1)CC2 [Example 7.03.117.] | 889
CC1CN(C(=O)Cn2nc(-c3ccc(F)cc3)nc2-c2ccc(F)cc2)CCN1c1ncccn1 (centres unmarked) [Example 7.03.118.] | 211
CC1CN(c2ncccn2)CCN1C(=O)Cn1nc(-c2ccc(F)cc2)nc1-c1ccc(F)cc1 (centres unmarked) [Example 7.03.119.] | 329
Cc1nc2c(s1)CC(C)N(C(=O)Cn1nc(-c3ccc(F)cc3)nc1-c1ccc(F)cc1)CC2 (centres unmarked) [Example 7.03.121.] | 259
Cc1nc2c(o1)CCN(C(=O)Cn1nc(-c3ccc(F)cc3)nc1-c1ccc(F)cc1)CC2 [Example 7.03.122.] | 57
Cc1nc2c(o1)CN(C(=O)Cn1nc(-c3ccc(F)c(C)c3)nc1-c1ccccc1)C2 [Example 7.03.123] | 31
Cc1nc2c(o1)CN(C(=O)Cn1nc(-c3ccc(F)cc3)nc1-c1ccc(F)cc1)C2 [Example 7.03.124] | 61
CCCCCc1nc(-c2ccc(F)c(C)c2)nn1CC(=O)N1Cc2nc(C)oc2C1 [Example 7.03.125] | 152
CCc1nc(-c2ccc(OC(F)F)cc2)nn1CC(=O)N1CCc2nc(C)sc2CC1 [Example 7.03.126] | 201
Cc1nc2c(s1)CCN(C(=O)Cn1nc(-c3ccc(OC(F)F)cc3)nc1-c1ccccc1)CC2 [Example 7.03.127] | 40
Cc1nc2c(s1)CN(C(=O)Cn1nc(-c3ccc(OC(F)F)cc3)nc1-c1ccccc1)C2 [Example 7.03.128] | 85
Cc1nc2c(o1)CN(C(=O)Cn1nc(-c3ccc(OC(F)F)cc3)nc1-c1ccccc1)C2 [Example 7.03.129] | 27
CCCc1nc(-c2ccc(OC(F)F)cc2)nn1CC(=O)N1CCN(c2noc(C)n2)CC1 [Example 7.03.130] | 481
CCCc1nc(-c2ccc(OC(F)F)cc2)nn1CC(=O)N1CCc2nc(C)sc2CC1 [Example 7.03.131] | 316
COc1ccc(-c2nc(-c3ccccc3)n(CC(=O)N3Cc4nc(C)oc4C3)n2)cc1 [Example 7.03.132] | 95
COc1ccc(-c2nc(-c3ccc(OC)cc3)n(CC(=O)N3Cc4nc(C)oc4C3)n2)cc1 [Example 7.03.133] | 104
